Measured values taken from the supplement of paper PMC10307832.

What was measured:
Assay in all cases: relative viability (nuclei count vs DMSO), 5 days (fraction); higher = more cells survive
[1] = compound: O=C(Nc1cc(C(F)(F)F)cc(C(F)(F)F)c1)c1cc(Cl)ccc1O [IMD-0354] + Cc1nc(Nc2ncc(C(=O)Nc3c(C)cccc3Cl)s2)cc(N2CCN(CCO)CC2)n1 [Dasatinib] (partner 0.075 µM)
Procedure, shortened: (§1)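 Dosing by pin tool came one day after lung cancer cell lines were seeded in 1536-well plates, using either one drug or a fixed anchor-drug dose plus five library-drug doses (not always all listed) in √10 steps. After 5 days, nuclei were counted on 4× images. Relative viability is treated-well nuclei count divided by vehicle-well nuclei count, and values are medians of duplicate plates.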

[2] = compound: O=C(Nc1cc(C(F)(F)F)cc(C(F)(F)F)c1)c1cc(Cl)ccc1O [IMD-0354] + CCNC(=O)c1noc(-c2cc(C(C)C)c(O)cc2O)c1-c1ccc(CN2CCOCC2)cc1 [Luminespib] (partner 0.01 µM)
Procedure, shortened: as §1

[3] = compound: Cc1cnc(CNC(=O)c2c(=O)c3ccc(N4CCCN(C)CC4)nc3n3c2sc2ccccc23)cn1 [CX-5461] + CC(C)C[C@H](NC(=O)[C@H](Cc1ccccc1)NC(=O)c1cnccn1)B(O)O [Bortezomib] (partner 0.002 µM)
Procedure, shortened: as §1

[4] = compound: Cc1cnc(CNC(=O)c2c(=O)c3ccc(N4CCCN(C)CC4)nc3n3c2sc2ccccc23)cn1 [CX-5461] + Nc1ncn([C@H]2C[C@H](O)[C@@H](CO)O2)c(=O)n1 [Decitabine] (partner 2 µM)
Procedure, shortened: as §1

Row | Cell Line | relative viability ([1]; first compound 0.04 µM) | relative viability ([1]; first compound 0.1265 µM) | relative viability ([1]; first compound 0.4 µM) | relative viability ([1]; first compound 1.265 µM) | relative viability ([1]; first compound 4 µM) | relative viability ([2]; first compound 0.04 µM) | relative viability ([2]; first compound 0.1265 µM) | relative viability ([2]; first compound 0.4 µM) | relative viability ([2]; first compound 1.265 µM) | relative viability ([2]; first compound 4 µM) | relative viability ([3]; first compound 0.01 µM) | relative viability ([3]; first compound 0.03162 µM) | relative viability ([3]; first compound 0.3162 µM) | relative viability ([3]; first compound 1 µM) | relative viability ([4]; first compound 0.01 µM) | relative viability ([4]; first compound 0.03162 µM) | relative viability ([4]; first compound 0.3162 µM) | relative viability ([4]; first compound 1 µM) | relative viability ([3]; first compound 0.1 µM) | relative viability ([4]; first compound 0.1 µM)
1 | NCI-H2023 | 0.713 | 0.497 | 0.361 | 0.108 | 0.113 | 1.03 | 0.799 | 0.292 | 0.0846 | 0.121 | 1.04 | 0.825 | 0.52 | 0.0872 | 0.223 | 0.178 | 0.178 | 0.0728 |  | 
2 | NCI-H2085 | 0.219 | 0.241 | 0.298 | 0.195 | 0.201 | 0.498 | 0.41 | 0.409 | 0.274 | 0.264 | 1.04 | 0.999 | 1.01 | 0.677 | 0.58 | 0.524 | 0.563 | 0.517 | 0.871 | 0.569
3 | NCI-H2087 | 0.828 | 0.896 | 0.312 | 0.122 | 0.151 | 0.147 | 0.183 | 0.173 | 0.12 | 0.127 | 0.812 | 0.884 | 1.07 | 0.525 | 0.277 | 0.306 | 0.288 | 0.188 | 0.781 | 0.213
4 | NCI-H2126 | 0.587 | 0.666 | 0.387 | 0.216 | 0.237 | 0.866 | 0.867 | 0.55 | 0.27 | 0.213 | 1.12 | 1.15 | 1.09 | 1.06 | 0.573 | 0.559 | 0.64 | 0.567 | 1.15 | 0.618
5 | NCI-H2347 | 0.321 | 0.308 | 0.278 | 0.162 | 0.229 | 0.523 | 0.331 | 0.356 | 0.395 | 0.267 | 1.06 | 1.21 | 0.854 | 0.941 | 0.628 | 0.638 | 0.604 | 0.589 | 0.836 | 0.625
6 | NCI-H2405 | 0.213 | 0.242 | 0.217 | 0.249 | 0.116 | 0.752 | 0.669 | 0.671 | 0.358 | 0.288 | 0.998 | 0.976 | 1.13 | 0.953 | 0.829 | 0.779 | 0.64 | 0.608 | 0.987 | 0.773
